Test results taken from PubChem BioAssay (NCI).
Values joined by “and” are separate entries in the source; they are usually repeats but may differ in a detail not shown here. Identical values can stand only once.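 How tested: cells in 96-well plates exposed to compound for 48 hours at five concentrations. GI50 = concentration required for 50% inhibition of growth. TGI is the concentration that stops growth completely.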

What was measured:
Experiment in all cases: growth of human tumour cells (NCI), 48 h
[1] = system: OVCAR-5 ovarian
[2] = system: M14 melanoma
[3] = system: SN12C renal
[4] = system: RXF 393 renal
[5] = system: OVCAR-8 ovarian
[6] = system: IGROV1 ovarian
[7] = system: HOP-92 NSCLC
[8] = system: SK-MEL-28 melanoma
[9] = system: U251 CNS
[10] = system: MOLT-4 leukemia

Row | Structure (SMILES) | TGI [1] [µM] | TGI [2] [µM] | TGI [3] [µM] | TGI [4] | TGI [5] [µM] | TGI [6] [µM] | TGI [7] [µM] | TGI [8] [µM] | TGI [9] [µM] | TGI [10] [µM] | GI50 [1] [µM] | GI50 [2] [µM] | GI50 [3] [µM] | GI50 [4] [µM] | GI50 [5] [µM] | GI50 [6] [µM] | GI50 [7] [µM] | GI50 [8] [µM] | GI50 [9] [µM] | GI50 [10] [µM]
1 | COc1ccc(C2CCc3cc4c(cc3/C2=N/OC(C)=O)OCO4)cc1OC (configuration not stated) | > 100 | 42.2 | > 100 | 54 µM | > 100 | > 100 | 69.6 | 57.4 | > 100 | 52 |  |  |  |  |  |  |  |  |  | 
2 | CC(=O)Oc1ccc2c(c1)CC[C@@H]1C2CC[C@]2(C)C(=O)NC(=O)CC12 (some centres not stated) | > 100 | > 100 | > 100 | > 100 µM | > 100 | > 100 | > 100 | > 100 | > 100 | > 100 |  |  |  |  |  |  |  |  |  | 
3 | Nc1[nH]c(=O)ncc1CO | > 100 | > 100 | > 100 | > 100 µM | > 100 | > 100 | > 100 | > 100 | > 100 | > 100 | > 100 | > 100 | > 100 | > 100 | > 100 | > 100 | > 100 | > 100 | > 100 | > 100
4 | Cc1nc(N)nc2ccccc12 | > 100 | > 100 | > 100 | > 100 µM | > 100 | > 100 | > 100 | > 100 | > 100 | > 100 |  |  |  |  |  |  |  |  |  | 
5 | O=c1c2ccccc2oc2ccc(OCCCCCCN3CCCCCC3)cc12 | 13.5 | 3.69 | 16.2 | 5.6 µM | 17.9 | 17.5 | 20.7 | 4.58 | 11.5 | 6.29 | 3.24 | 1.88 | 4.07 | 2.17 | 4.66 | 4.29 | 4.29 | 2.01 | 3.28 | 2.38
6 | COC(=O)/C(=N\NC(N)=S)C(C#N)c1ccccc1 (configuration not stated) | > 100 | > 100 | > 100 | > 100 µM | > 100 | > 100 | > 100 | > 100 | > 100 | > 100 |  |  |  |  |  |  |  |  |  | 
7 | Cc1cc(Cl)ccc1Nc1nc(C(F)(F)F)ccc1C(=O)N1CCN(c2cccc(Cl)c2)CC1 | > 100 | > 100 | > 100 | > 100 µM | > 100 | > 100 | > 100 | > 100 | > 100 | > 100 | > 100 | > 100 | > 100 | > 100 | > 100 | 1.78 | 73.4 | > 100 | > 100 | 19.6
8 | COc1ccc(S(=O)(=O)N(C)CC(=O)O)cc1 | > 100 | > 100 | > 100 | > 100 µM | > 100 | > 100 | > 100 | > 100 | > 100 | > 100 |  |  |  |  |  |  |  |  |  | 
9 | C=[CH][Sn]([CH]=C)([O]c1cccc2cccnc12)[O]c1cccc2cccnc12 | 13.8 | 5.92 | 17.5 | 1.21 µM | 18.2 | 11 | 19.5 | 10.5 | 6.67 | 11.1 | 5.16 | 2.11 | 4.45 | 0.28 | 3.76 | 3.31 | 6.52 | 4.03 | 2.58 | 1.42
10 | CC(=O)Oc1ccc(/C=N/NC(N)=S)nc1 | > 100 | 8.72 | > 100 | > 100 µM | > 100 | 26.8 | > 100 | > 100 | > 100 | > 100 | 69 | 2.72 | 4.06 | 4.24 | 2.85 | 4.5 | 12.9 | 25.5 | 4.17 | 2.57
11 | Nc1ccc(S(=O)(=O)Nc2cnc3c(Cl)cccc3n2)cc1 | > 750 | > 750 | > 750 | > 31.6 µM and 460 µM | > 750 | > 275 | 544 | 723 | > 750 | 565 | > 80.7 |  | > 81.5 | 9.52 | 40.1 | 1.16 |  | > 69.4 | 68 | 65.6
12 | CCOc1ccc(C(CN2CCOCC2)C(C)=O)cc1OC (configuration not stated) | 33.2 | 33.7 | 31.2 | 41.1 µM | 37.7 | 49.6 | 35.7 | 35.8 | 31.9 | > 100 |  |  |  |  |  |  |  |  |  | 
13 | CCC1CNC(=O)CC1CC(=O)OC (configuration not stated) | > 100 | > 100 | > 100 | > 100 µM |  | > 100 | > 100 | > 100 | > 100 | > 100 |  |  |  |  |  |  |  |  |  | 
14 | COc1cccc(NC(=O)C(=O)C(C(C)=O)c2nc3ccc(Cl)cc3[nH]c2=O)c1 (configuration not stated) | > 100 | > 100 | > 100 | > 100 µM | > 100 | > 100 | > 100 | > 100 | > 100 | > 100 |  |  |  |  |  |  |  |  |  | 
15 | CC1CCC2N(C1)CC1C3(O)CC45OC6(O)C(O)CCC4(C)C6CCC5C3(O)CC(O)C1(O)C2(C)O (configuration not stated) | > 100 | > 100 | > 100 | > 100 µM | > 100 | > 100 | > 100 | > 100 | > 100 | > 100 |  |  |  |  |  |  |  |  |  | 
16 | CN(C=O)/C=C/c1cc(O)ccc1O | 63.9 | > 57.9 | 44.3 | 34.1 µM | 72.4 | > 71.4 | 34.8 | > 58.3 | > 69.7 | 29.4 |  |  |  |  |  |  |  |  |  | 
